Results from paper PMC6675714 (Cancer Medicine, 2019).
“Also recorded” adds a separate entry of the source.

Legend:
[1] = Body and organ weights at necropsy after the trial; type: in vivo, NOD.CB17‐Prkdc scid/J mice
[2] = Hematology values (complete blood count) after the trial; type: in vivo, NOD-SCID mice
Procedure: Supplementary Table 2. Summary of hematology values (mean) for three specimens (collected 72h after the last dose of 10mg/kg/72h at the end of a 21 day trial (NOD/LtSz-Prkdscid/j. Complete blood counts of each group (n = 3 mice per group). Heparinized blood acquired from mice was assessed using the automatic Hematology Analyzer. Blood smears were carried out and fixed with methanol, stained, and observed under the microscope to carry out differential blood white cell counts.

Caki‐1 xenograft tumors = test: Protein expression in tumor lysates (Proteome Profiler arrays); type: in vivo, NOD.CB17‐Prkdc SCID/J mice; conditions: tumor lysate, 21‐day trial, vs vehicle
Procedure: Whole tumors were extracted at the trial endpoint and lysed. Before application to the array, protein concentration was determined by BCA. Then 150 µg of lysate was incubated for 24 hours with the Proteome Profiler Human XL Oncology Array (ARY026, R&D Systems) and Human Cell Stress Array (ARY018, R&D Systems). The relative expression levels of the proteases were determined according to the manufacturer's protocol, and signal intensities were compared using HLImage^++ software.

[3] = Plasma chemistry parameters after the trial; type: in vivo, tumor bearing NOD-SCID mice
Procedure: Supplementary Table 1. Summary of plasma chemistry parameters metabolic analytes for three specimens (collected 72h after the last dose of 10mg/kg/72h at the end of a 21 day trial) from 3 tumor bearing NOD-SCID (NOD/LtSz-Prkdscid/j. The study criteria reflect pathological criterion used in clinical studies. Metabolic markers were quantified from freshly isolated plasma and compared to reference range.

xenograft Caki‐1 tumors = test: Xenograft renal cancer intervention (efficacy) trial; type: in vivo, NOD.CB17‐Prkdc SCID/J mice; conditions: 10 mg/kg/72h ip
Text: Tissue samples were processed as described above and analyzed for Ru and Au content using ICP‐MS
Percent of change in tumor burden in a cohort of 3 females and 3 males NOD.CB17‐Prkdc scid/J mice inoculated subcutaneously with 5 × 10^6 Caki‐1 cells. The treatment started when tumors were palpable (~5 mm diameter). […] (A) Representative histological samples of tumors resected from each treatment group.

[4] = 21 day course once/72h, mean and SEM, n = 3
[5] = Supplementary Table 3, end of trial
[6] = automatic count, blood 72h after last dose, 21 day trial, mean n = 3
[7] = plasma 72h after last dose of 10mg/kg/72h, 21 day trial

Question: Which “Average weight: Average Kidney” value [1, 4] does the source give for “[Cl2(p‐cymene)Ru(μ‐dppm)Au(IMes)]ClO4 [RANCE‐1]” here?
Answer: The value was 0.17 ± 0.06 g.

Question: What about the “Average weight: Body” value [1, 4] of the same substance?
Answer: The value was 21.31 ± 5.1 g.

Question: And the “Average weight: Heart” value [1, 4]?
Answer: The value was 0.11 ± 0.05 g.

Question: And the “Average weight: Liver” value [1, 4]?
Answer: Its value is 1.15 ± 0.37 g.

Question: And the “Average weight: Spleen” value [1, 4]?
Answer: The value was 0.04 ± 0.017 g.

Question: And the Body weight [1, 5]?
Answer: Its Body weight is 18.731 g.

Question: What about the Heart weight [1, 5] of the same substance?
Answer: Its Heart weight is 0.078 g.

Question: And the “Left Kidney weight” value [1, 5]?
Answer: Its value is 0.148 g.

Question: What about the Liver weight [1, 5] of the same substance?
Answer: The Liver weight was 0.974 g.

Question: What about the “Right Kidney weight” value [1, 5] of the same substance?
Answer: Its value is 0.140 g.

Question: And the Spleen weight [1, 5]?
Answer: Its Spleen weight is 0.035 g.

Question: What about the “Total body weight or organ weight, treated vs control mice” value ([1]; end of the trial) of the same substance?
Answer: Its value is “no notable difference”.

Question: What about the RBC ([2]; automatic count, blood 72h after last dose of 10mg/kg/72h, 21 day trial, mean n = 3, reference range 7.84-10.84) of the same substance?
Answer: The RBC was 10.31 M/uL.

Question: And the PDW [2, 6]?
Answer: Its PDW is 7.5 fL.

Question: What about the RDW-SD [2, 6] of the same substance?
Answer: Its RDW-SD is 31.03 fL.

Question: What about the RET ([2]; automatic count, blood 72h after last dose, 21 day trial, mean n = 3, reference range 2.56-4.56, marked *▾) of the same substance?
Answer: The RET was 2.03%.

Question: What about the MPV ([2]; automatic count, blood 72h after last dose, 21 day trial, mean n = 3, reference range 4.2-6.3) of the same substance?
Answer: Its MPV is 6.53 fL.

Question: And the HGB ([2]; automatic count, blood 72h after last dose, 21 day trial, mean n = 3, reference range 11.8-17.6)?
Answer: Its HGB is 15.8 g/dL.

Question: And the MCH ([2]; automatic count, blood 72h after last dose, 21 day trial, mean n = 3, reference range 13.7-17.2)?
Answer: Its MCH is 15.37 pg.

Question: And the RDW-CV ([2]; automatic count, blood 72h after last dose, 21 day trial, mean n = 3, reference range 17.3-20.3)?
Answer: Its RDW-CV is 23.5%.

Question: And the MCHC ([2]; automatic count, blood 72h after last dose, 21 day trial, mean n = 3, reference range 25.1-31.3)?
Answer: Its MCHC is 29.9 g/dL.

Question: And the HCT ([2]; automatic count, blood 72h after last dose, 21 day trial, mean n = 3, reference range 44.1-58.3)?
Answer: The HCT was 52.8%.

Question: What about the MCV ([2]; automatic count, blood 72h after last dose, 21 day trial, mean n = 3, reference range 51.1-58.6) of the same substance?
Answer: The MCV was 51.3 fL.

Question: And the “RET#” value ([2]; automatic count, blood 72h after last dose, 21 day trial, mean n = 3, reference range 294-444, marked *▾)?
Answer: The value was 192.67 K/uL.

Question: And the PLT ([2]; automatic count, blood 72h after last dose, 21 day trial, mean n = 3, reference range 651-2055, marked *▾)?
Answer: The PLT was 1056.67 K/uL.

Question: And the “Morphology (manual differential section)” value ([2]; blood smears, end of 21 day trial)?
Answer: Its value is “Many neutrophils are hypersegmented”.

Question: What about the “Morphology (automatic count section)” value ([2]; blood smears, three specimens, end of 21 day trial) of the same substance?
Answer: The value was 2+ PLT clumps. RBC morphology is within normal limits. 4+ polychromasia. 2+ acanthocytes. 4+ polychromasia. 2+ acanthocytes.

Question: What about the “Physicochemical study and complete blood count” value ([2]; end of trial) of the same substance?
Answer: Its value is “no significant changes”.

Question: What about the “Band#” value ([2]; manual differential, blood 72h after last dose, 21 day trial) of the same substance?
Answer: The value was 0 K/uL.

Question: What about the “MONO#” value ([2]; manual differential, blood 72h after last dose, 21 day trial, reference range 0.03-0.26) of the same substance?
Answer: The value was 0 K/uL.

Question: What about the “LYMPH#” value ([2]; manual differential, blood 72h after last dose, 21 day trial, reference range 0.23-1.56, marked *▴) of the same substance?
Answer: The value was 0.6167 K/uL.

Question: What about the “Neut#” value ([2]; manual differential, blood 72h after last dose, 21 day trial, reference range 0.54-3.16, marked *▴, ◎) of the same substance?
Answer: Its value is 8.55 K/uL.

Question: And the MONO ([2]; manual differential, blood 72h after last dose, 21 day trial, reference range 1.71-10.93, marked *▾)?
Answer: The MONO was 2%.

Question: What about the LYMPH ([2]; manual differential, blood 72h after last dose, 21 day trial, reference range 13.51-42.61, marked *▾) of the same substance?
Answer: Its LYMPH is 15.67%.

Question: What about the NEUT ([2]; manual differential, blood 72h after last dose, 21 day trial, reference range 44.21-79.92, marked *▴) of the same substance?
Answer: Its NEUT is 80.67%.

Question: And the “CCL7 and CCL8 levels” value (Caki‐1 xenograft tumors)?
Answer: Its value is “decrease”.

Question: What about the “Expression of CapG protein” value (Caki‐1 xenograft tumors) of the same substance?
Answer: The value was “suppressed”.

Question: What about the “Expression of HIF‐1a, ICAM, VE‐Cadherin, and VCAM‐1” value (Caki‐1 xenograft tumors) of the same substance?
Answer: The value was “significantly decreased”.

Question: And the “Expression of growth factors VEGF, PDGF, FGF, EGFR, and HGRF” value (Caki‐1 xenograft tumors)?
Answer: The value was “Significant reduction; also recorded: decrease”.

Question: And the “Expression of immune factors IL‐2R and GM‐CSF” value (Caki‐1 xenograft tumors)?
Answer: Its value is “increase”.

Question: What about the “M‐CSF expression” value (Caki‐1 xenograft tumors) of the same substance?
Answer: The value was “increase”.

Question: And the “Prometastatic factors CtsB, CtsS, FoxC2, MMP‐2, MMP‐3, MMP‐8, ADAM8, and ADAMP9” value (Caki‐1 xenograft tumors)?
Answer: Its value is “significant decrease”.

Question: What about the “Clinical chemistry, treated vs control animals” value ([3]; end of trial) of the same substance?
Answer: The value was “no differences”.

Question: And the Kidney health indicators ([3]; end of trial)?
Answer: The Kidney health indicators was “within normal values”.

Question: What about the DBIL [3, 7] of the same substance?
Answer: Its DBIL is 0.033 mg/dL.

Question: And the GGT [3, 7]?
Answer: Its GGT is 0 U/L.

Question: What about the IBIL [3, 7] of the same substance?
Answer: Its IBIL is 0.2 mg/dL.

Question: What about the TCO2 [3, 7] of the same substance?
Answer: The TCO2 was 18 mEq/L.

Question: And the “Anion Gap” value ([3]; plasma 72h after last dose of 10mg/kg/72h, 21 day trial, marked *▴)?
Answer: The value was 37.63.

Question: And the CREA ([3]; plasma 72h after last dose of 10mg/kg/72h, 21 day trial, reference range 0.2-0.5)?
Answer: Its CREA is 0.117 mg/dL.

Question: And the TBIL ([3]; plasma 72h after last dose of 10mg/kg/72h, 21 day trial, reference range 0.2-0.6)?
Answer: Its TBIL is 0.23 mg/dL.

Question: What about the GLOB ([3]; plasma 72h after last dose of 10mg/kg/72h, 21 day trial, reference range 1.7-2.2) of the same substance?
Answer: The GLOB was 2.63 g/dL.

Question: What about the ALB ([3]; plasma 72h after last dose of 10mg/kg/72h, 21 day trial, reference range 2.4-4.3) of the same substance?
Answer: The ALB was 2.57 g/dL.

Question: And the ALT ([3]; plasma 72h after last dose of 10mg/kg/72h, 21 day trial, reference range 27-195)?
Answer: The ALT was 170.66 U/L.

Question: And the AST ([3]; plasma 72h after last dose of 10mg/kg/72h, 21 day trial, reference range 54-77)?
Answer: The AST was 394.67 U/L.

Question: What about the CHOL ([3]; plasma 72h after last dose of 10mg/kg/72h, 21 day trial, reference range 55-169) of the same substance?
Answer: Its CHOL is 87.67 mg/dL.

Question: And the TRIG ([3]; plasma 72h after last dose of 10mg/kg/72h, 21 day trial, reference range 67-289, marked *▾)?
Answer: The TRIG was 116 mg/dL.

Question: What about the ALP ([3]; plasma 72h after last dose of 10mg/kg/72h, 21 day trial, reference range 105-370, marked *▾) of the same substance?
Answer: The ALP was 39.33 U/L.

Question: What about the Cl ([3]; plasma 72h after last dose of 10mg/kg/72h, 21 day trial, reference range 111-134) of the same substance?
Answer: The Cl was 106 mEq/L.

Question: What about the GLU ([3]; plasma 72h after last dose of 10mg/kg/72h, 21 day trial, reference range 172-372, marked *▾) of the same substance?
Answer: The GLU was 165 mg/dL.

Question: What about the “Weight and well‐being during the trial” value (xenograft Caki‐1 tumors; 21 days) of the same substance?
Answer: The value was “no significant change in weight or any decline in the well‐being”.

Question: What about the “Tumor burden after treatment” value (xenograft Caki‐1 tumors; 21 days of treatment, total of 7 doses) of the same substance?
Answer: The value was “no change in tumor burden”.
